Key:
[1] = system: indole-3-acetic acid (IEA) synthesis reaction; experiment: Enzyme assay for inhibitors of indole-3-acetic acid (IEA, auxin) biosynthesis, enzyme extract from plant shoots; format: biochemical, Chenopodium album
Procedure: To obtain the enzyme extract, 2 g of frozen plant shoots of Chenopodium album (common lambsquarters), which had been comminuted in a pestle and mortar under liquid nitrogen, were defrosted at room temperature in 3 ml of 100 mM EPPS extraction buffer (5 mM dithiothreitol, 6 μM pyridoxal phosphate, 10 μM leupeptin, 10 μM Pefabloc SC, pH 8.5) together with a spatula-tipfull of polyvinyl pyrrolidone in the course of 30 minutes with gentle stirring. Thereafter, the plant material was centrifuged for 10 minutes at 4° C. and the supernatant was desalinified on a Sephadex G-25 column (preequilibrated with 5 mM EPPS elution buffer (1 mM dithiothreitol, 6 μM pyridoxal phosphate, 10 μM Pefabloc SC, pH 8.5). The resulting enzyme extract (400 μl) was incubated in the test assay (volume 600 μl) for 2 hours at 37° C. in the presence of 20 μM pyridoxal phosphate, 80 mM EPPS extraction buffer, 50 μM L-tryptophan, 50 μM α-ketoglutarate and 50 μM indole with addition of 100 μl of EPPS extraction buffer and 6 μl of active ingredient solution (10 mM compound I in DMSO). The control without compound I was treated with the corresponding amount of DMSO. The reaction was subsequently stopped by addition of 20 μl 7.2N HCl and 3 ml of ethyl acetate. The control assays without incubation were placed on ice and immediately treated with HCl and ethyl acetate. After reextraction with 3 ml of ethyl acetate, the organic phases (6 ml) are combined and concentrated under a nitrogen stream, and the samples are methylated with diazomethane. […] Thereafter, the amount of IEA-Me was determined immunoanalytically by means of monoclonal antibodies (100% reactivity to IEA-Me); (method of Weiler E. W., Eberle J., Mertens R., Atzorn R., Feyerabend M., Jourdan P. S., Arnscheidt A., Wieczorek U., in: Immunology in Plant Science (Wang T. L., Ed.), Society for Experimental Biology, Seminar Series 29, Cambridge University Press, Cambridge, 1986, pp. 27-58) and used as measurement for the enzyme activities.

Pharbitis purpurea = experiment: Greenhouse herbicidal activity, post-emergence; format: in vivo; details: 1.0 kg a.s./ha
From the text: (§1) The culture containers used were plastic pots comprising loamy sand with approximately 3.0% humus as substrate. The seeds of the test plants were sown separately for each species. For the post-emergence treatment, the test plants were first grown to a plant height of from 3 to 15 cm, depending on the plant habit, and only then treated with the active ingredients which had been suspended or emulsified in water. To this end, the test plants were either sown directly and grown in the same containers, or they were first grown separately as seedlings and transplanted into the test containers a few days prior to treatment. […] Depending on the species, the plants were kept at from 10-25° C. or 20-35° C., respectively. The test period extended over 2 to 4 weeks. During this time, the plants were attended, and their response to the individual treatments was evaluated. Evaluation was carried out using a scale of from 0 to 100. 100 means no emergence of the plants, or complete destruction of at least the aerial parts, while 0 means no damage, or normal course of growth. The plants used in the greenhouse experiments belong to the following species: [table]

Echinocloa crus-galli = experiment: Greenhouse herbicidal activity, post-emergence; format: in vivo; details: 1.0 kg a.s./ha
From the text: as §1

Chenopodium album = experiment: Greenhouse herbicidal activity, post-emergence; format: in vivo; details: 1.0 kg a.s./ha
From the text: as §1

CNC(=O)C(CNC(=O)c1ccccc1F)NC(=O)c1ccc(C(F)(F)F)cc1F (stereo not drawn) [compound I]
pMol IEA-Me/g fresh shoot weight ([1]; 100 μM compound I, incubation 2 hours at 37° C., mean from three measurements): 156.0 +/− 14.8 pMol IEA-Me/g fresh shoot weight | Inhibition [%] ([1]; 100 μM compound I, incubation 2 hours at 37° C., control value without incubation subtracted): 73% | synthesis of indole-3-acetic acid from L-tryptophan ([1]; in vitro): inhibited | herbicidal efficiency (Pharbitis purpurea): very good herbicidal efficiency | herbicidal efficiency (Echinocloa crus-galli): very good herbicidal efficiency | herbicidal efficiency (Chenopodium album): very good herbicidal efficiency
